Data: PubChem BioAssay AID1259407 (Chemical Carcinogenesis Research Information System (CCRIS), 2018)
Calls of active or inactive are those of the source. How the calls were made is not given here.

System: CCRIS mutagenicity, Ames/micronucleus/aberration tests
Test: CCRIS mutagenicity studies
[1] = Test System: AMES SALMONELLA TYPHIMURIUM, Strain/Indicator: TA98, Metabolic Activation: NONE, Method: STANDARD PLATE
[2] = Test System: AMES SALMONELLA TYPHIMURIUM, Strain/Indicator: TA98, Metabolic Activation: RAT, LIVER, S-9, AROCLOR 1254, Method: STANDARD PLATE
[3] = Test System: AMES SALMONELLA TYPHIMURIUM, Strain/Indicator: TA100, Metabolic Activation: NONE, Method: STANDARD PLATE
[4] = Test System: AMES SALMONELLA TYPHIMURIUM, Strain/Indicator: TA100, Metabolic Activation: RAT, LIVER, S-9, AROCLOR 1254, Method: STANDARD PLATE
[5] = Test System: AMES SALMONELLA TYPHIMURIUM, Strain/Indicator: TA1535, Metabolic Activation: NONE, Method: PREINCUBATION
[6] = Test System: AMES SALMONELLA TYPHIMURIUM, Strain/Indicator: TA98, Metabolic Activation: NONE, Method: PREINCUBATION
[7] = Test System: AMES SALMONELLA TYPHIMURIUM, Strain/Indicator: TA100, Metabolic Activation: NONE, Method: PREINCUBATION

SMILES: Clc1cccc2cc3ccccc3cc12
- mutagenic call [1]: inactive; negative
- mutagenic call [2]: inactive; negative
- mutagenic call [3]: inactive; negative
- mutagenic call [4]: inactive; negative

SMILES: O=[N+]([O-])c1c2ccccc2c2ccc3cccc4ccc1c2c43
- mutagenic call (Test System: AMES SALMONELLA TYPHIMURIUM, Strain/Indicator: TA98 (1,8-DNP6), Metabolic Activation: NONE, Method: STANDARD PLATE): inactive; negative
- mutagenic call (Test System: AMES SALMONELLA TYPHIMURIUM, Strain/Indicator: TA98 (NR), Metabolic Activation: NONE, Method: STANDARD PLATE): inactive; negative
- mutagenic call [1]: inactive; negative
- mutagenic call (Test System: AMES SALMONELLA TYPHIMURIUM, Strain/Indicator: TA98, Metabolic Activation: NONE, Method: STANDARD PLATE (ANAEROBIC)): inactive; negative
- mutagenic call (Test System: AMES SALMONELLA TYPHIMURIUM, Strain/Indicator: TA98, Metabolic Activation: RAT, LIVER, HEPATOCYTES, AROCLOR 1254): inactive; negative
- mutagenic call (Test System: AMES SALMONELLA TYPHIMURIUM, Strain/Indicator: TA98, Metabolic Activation: RAT, LIVER, S-9, 3-METHYLCHOLANTHRENE, Method: STANDARD PLATE): active; positive
- mutagenic call [2]: active; positive
- mutagenic call (Test System: AMES SALMONELLA TYPHIMURIUM, Strain/Indicator: TA98, Metabolic Activation: RAT, LIVER, S-9, BETA-NAPHTHOFLAVONE, Method: STANDARD PLATE): active; positive
- mutagenic call (Test System: AMES SALMONELLA TYPHIMURIUM, Strain/Indicator: TA98, Metabolic Activation: RAT, LIVER, S-9, PHENOBARBITAL, Method: STANDARD PLATE): inactive; negative
- mutagenic call [3]: inactive; negative
- mutagenic call (Test System: AMES SALMONELLA TYPHIMURIUM, Strain/Indicator: TA100, Metabolic Activation: RAT, LIVER, S-9, AROCLOR 1254 (20 OR 50 µL), Method: STANDARD PLATE): active; positive
- mutagenic call (Test System: CHINESE HAMSTER OVARY, Strain/Indicator: CHO-K1-BH4 (HGPRT), Metabolic Activation: NONE): inactive; negative
- mutagenic call (Test System: CHO/HGPRT, Strain/Indicator: CHO-K1-BH4, Metabolic Activation: NONE): inactive; negative
- mutagenic call (Test System: CHO/HGPRT, Strain/Indicator: CHO-K1-BH4, Metabolic Activation: RAT, LIVER, HEPATOCYTES): inactive; negative
- mutagenic call (Test System: CHO/HGPRT, Strain/Indicator: CHO-K1-BH4, Metabolic Activation: RAT, LIVER, HEPATOCYTES, 3-METHYLCHOLANTHRENE): inactive; negative
- mutagenic call (Test System: CHO/HGPRT, Strain/Indicator: CHO-K1-BH4, Metabolic Activation: RAT, LIVER, HEPATOCYTES, AROCLOR 1254): inactive; negative
- mutagenic call (Test System: CHO/HGPRT, Strain/Indicator: CHO-K1-BH4, Metabolic Activation: RAT, LIVER, S-9): inactive; negative
- mutagenic call (Test System: CHO/HGPRT, Strain/Indicator: CHO-K1-BH4, Metabolic Activation: RAT, LIVER, S-9, 3-METHYLCHOLANTHRENE): inactive; negative
- mutagenic call (Test System: CHO/HGPRT, Strain/Indicator: CHO-K1-BH4, Metabolic Activation: RAT, LIVER, S-9, AROCLOR 1254): inactive; negative

SMILES: C[n+]1c2ccccc2cc2ccccc21
- mutagenic call [5]: inactive; negative
- mutagenic call (Test System: AMES SALMONELLA TYPHIMURIUM, Strain/Indicator: TA1535, Metabolic Activation: RAT, LIVER, S-9, TETRACHLOROBIPHENYL, Method: PREINCUBATION): inactive; negative
- mutagenic call (Test System: AMES SALMONELLA TYPHIMURIUM, Strain/Indicator: TA1537, Metabolic Activation: NONE, Method: PREINCUBATION): inactive; negative
- mutagenic call (Test System: AMES SALMONELLA TYPHIMURIUM, Strain/Indicator: TA1537, Metabolic Activation: RAT, LIVER, S-9, TETRACHLOROBIPHENYL, Method: PREINCUBATION): active; positive
- mutagenic call (Test System: AMES SALMONELLA TYPHIMURIUM, Strain/Indicator: TA1538, Metabolic Activation: NONE, Method: PREINCUBATION): inactive; negative
- mutagenic call (Test System: AMES SALMONELLA TYPHIMURIUM, Strain/Indicator: TA1538, Metabolic Activation: RAT, LIVER, S-9, TETRACHLOROBIPHENYL, Method: PREINCUBATION): active; positive
- mutagenic call (Test System: AMES SALMONELLA TYPHIMURIUM, Strain/Indicator: TA1978, Metabolic Activation: RAT, LIVER, S-9, TETRACHLOROBIPHENYL, Method: PREINCUBATION): inactive; negative

SMILES: CCCCC(CC)COC(=O)c1ccc(C(=O)OCC(CC)CCCC)c(C(=O)OCC(CC)CCCC)c1 (centres undefined)
- mutagenic call (Test System: AMES SALMONELLA TYPHIMURIUM, Strain/Indicator: TA97, Metabolic Activation: HAMSTER, LIVER, S-9, AROCLOR 1254 (10 OR 30%), Method: PREINCUBATION): inactive; negative
- mutagenic call (Test System: AMES SALMONELLA TYPHIMURIUM, Strain/Indicator: TA97, Metabolic Activation: NONE, Method: PREINCUBATION): inactive; negative
- mutagenic call (Test System: AMES SALMONELLA TYPHIMURIUM, Strain/Indicator: TA97, Metabolic Activation: RAT, LIVER, S-9, AROCLOR 1254 (10 OR 30%), Method: PREINCUBATION): inactive; negative
- mutagenic call (Test System: AMES SALMONELLA TYPHIMURIUM, Strain/Indicator: TA98, Metabolic Activation: HAMSTER, LIVER, S-9, AROCLOR 1254 (10 OR 30%), Method: PREINCUBATION): inactive; negative
- mutagenic call [6]: inactive; negative
- mutagenic call (Test System: AMES SALMONELLA TYPHIMURIUM, Strain/Indicator: TA98, Metabolic Activation: RAT, LIVER, S-9, AROCLOR 1254 (10 OR 30%), Method: PREINCUBATION): inactive; negative
- mutagenic call (Test System: AMES SALMONELLA TYPHIMURIUM, Strain/Indicator: TA100, Metabolic Activation: HAMSTER, LIVER, S-9, AROCLOR 1254 (10 OR 30%), Method: PREINCUBATION): inactive; negative
- mutagenic call [7]: inactive; negative
- mutagenic call (Test System: AMES SALMONELLA TYPHIMURIUM, Strain/Indicator: TA100, Metabolic Activation: RAT, LIVER, S-9, AROCLOR 1254 (10 OR 30%), Method: PREINCUBATION): inactive; negative
- mutagenic call (Test System: AMES SALMONELLA TYPHIMURIUM, Strain/Indicator: TA1535, Metabolic Activation: HAMSTER, LIVER, S-9, AROCLOR 1254 (10 OR 30%), Method: PREINCUBATION): inactive; negative
- mutagenic call [5]: inactive; negative
- mutagenic call (Test System: AMES SALMONELLA TYPHIMURIUM, Strain/Indicator: TA1535, Metabolic Activation: RAT, LIVER, S-9, AROCLOR 1254 (10 OR 30%), Method: PREINCUBATION): inactive; negative

SMILES: N#[N+]c1ccc([O-])cc1
- mutagenic call [6]: active; positive
- mutagenic call (Test System: AMES SALMONELLA TYPHIMURIUM, Strain/Indicator: TA98, Metabolic Activation: RAT, LIVER, S-9, POLYCHLORINATED BIPHENYLS, Method: PREINCUBATION): active; positive
- mutagenic call [7]: active; positive
- mutagenic call (Test System: AMES SALMONELLA TYPHIMURIUM, Strain/Indicator: TA100, Metabolic Activation: RAT, LIVER, S-9, POLYCHLORINATED BIPHENYLS, Method: PREINCUBATION): active; positive

SMILES: c1ccc2c(c1)C1OOC2c2ccccc21
- mutagenic call [1]: inactive; negative
- mutagenic call [3]: inactive; negative
- mutagenic call [4]: inactive; negative

SMILES: CC(=O)Nc1ccc(Oc2ccc(N(O)C=O)cc2)cc1
- mutagenic call (Test System: AMES SALMONELLA TYPHIMURIUM, Strain/Indicator: TA98(1,8-DNP6), Metabolic Activation: NONE, Method: PREINCUBATION): active; positive
- mutagenic call (Test System: AMES SALMONELLA TYPHIMURIUM, Strain/Indicator: TA98(1,8-DNP6), Metabolic Activation: RAT, LIVER, S-9, AROCLOR 1254, Method: PREINCUBATION): active; positive
- mutagenic call (Test System: AMES SALMONELLA TYPHIMURIUM, Strain/Indicator: TA98(NR), Metabolic Activation: NONE, Method: PREINCUBATION): active; positive
- mutagenic call (Test System: AMES SALMONELLA TYPHIMURIUM, Strain/Indicator: TA98(NR), Metabolic Activation: RAT, LIVER, S-9, AROCLOR 1254, Method: PREINCUBATION): active; positive
- mutagenic call [6]: active; positive
- mutagenic call (Test System: AMES SALMONELLA TYPHIMURIUM, Strain/Indicator: TA98, Metabolic Activation: RAT, LIVER, S-9, AROCLOR 1254, Method: PREINCUBATION): active; positive
- mutagenic call (Test System: AMES SALMONELLA TYPHIMURIUM, Strain/Indicator: TA100(NR), Metabolic Activation: NONE, Method: PREINCUBATION): active; positive
- mutagenic call (Test System: AMES SALMONELLA TYPHIMURIUM, Strain/Indicator: TA100(NR), Metabolic Activation: RAT, LIVER, S-9, AROCLOR 1254, Method: PREINCUBATION): active; positive
- mutagenic call [7]: active; positive
- mutagenic call (Test System: AMES SALMONELLA TYPHIMURIUM, Strain/Indicator: TA100, Metabolic Activation: RAT, LIVER, S-9, AROCLOR 1254, Method: PREINCUBATION): active; positive
